Experimental data published in patent US9408827B2, “Sheet for cutaneous application containing vitamin E or an ester thereof” (IneSalus Corp., priority 2013, dated 2016).

Assays:
[1] = test system: reconstituted human epidermis Epi-200 EpiDerm™; experiment: Release of lactate dehydrogenase (LDH) in the culture medium; conditions: 18-hour treatment; Tukey Kramer Multiple Comparisons Test
From the text: Further information for better defining the irritation potential was obtained from subsequent measurement of the following parameters: • evaluation of the release, in the culture medium, of the lactate dehydrogenase (LDH), a cytoplasmic enzyme, release of which indicates loss of integrity of the cellular membrane; • evaluation of the release, in the culture medium, of pro-inflammatory cytokine by means of ELISA (Enzyme Linked Immunosorbent Assay).
Tissue used: EPI-200-SIT EpiDerm™
Culture medium: EPI-100-MM-HCF-60
(§1) Incubation conditions: +37° C. in a 5% CO2 atmosphere
(§2) Treatment with the sample: • continuous contact and incubation for 18 hours (single) • continuous contact and incubation for 7 days (double)
(§3) Application was carried out by applying about 1 cm^2 of sample (i.e. of the sheet according to the invention obtained as per the example given above) per insert.
(§4) Controls Performed for the First Evaluation (18 Hours): • Negative control after 18 hours: inserts not treated • Positive control: inserts treated with 0.5% SDS (Sodium Dodecylsulphate) in sterile water during 18 hours of incubation; […]
Evaluation in the culture medium obtained after the incubation period of the sample with the epidermis model. The culture medium is incubated with a specific reagent so as to allow quantitive determination of the lactate dehydrogenase at 490 nm.

[2] = test system: reconstituted human epidermis Epi-200 EpiDerm™; experiment: Release of IL-1α in the culture medium (ELISA); conditions: 18-hour treatment; Tukey Kramer Multiple Comparisons Test
Method: Tissue used: EPI-200-SIT EpiDerm™
Culture medium: EPI-100-MM-HCF-60
as §1, §2
Controls Performed for the First Evaluation (18 Hours): • Negative control after 18 hours: inserts not treated • Positive control: inserts treated with 0.5% SDS (Sodium Dodecylsulphate) in sterile water during 18 hours of incubation;
Controls Performed for the 7-Day Evaluation: • Negative control: inserts not treated with the sample and kept for 7 days in the same incubation conditions as those treated with the sample.
Evaluation of the Release of IL-1α in the Culture Medium:
Evaluation in the culture medium obtained after the period of incubation of the sample with EPI-200. The release is measured by means of specific ELISA.

[3] = test system: reconstituted human epidermis Epi-200 EpiDerm™; experiment: Evaluation of the cellular vitality by MTT assay (EpiDerm Skin Irritation Test EPI-200-SIT)
Method: The tolerability of the sheets according to the invention was evaluated by means of an in-vitro assay on models of reconstituted epidermis for evaluation of the cumulative irritation.
The assay in question was based on the In vitro Epiderm™ Skin Irritation Test (EPI-200-SIT) developed by the MatTek Corporation, which uses the model of reconstituted human epidermis Epi-200 EpiDerm™.
The assay consists in topical application of the material under testing on the reconstituted epidermis for contact times equal to or greater than 18 hours. The irritation potential is determined by means of evaluation of the cellular vitality using the MTT assay.
Conditions for Conducting the Assay for Evaluation of the Cellular Vitality
Tissue used: EPI-200-SIT EpiDerm™
Culture medium: EPI-100-MM-HCF-60
as §1, §2, §3, §4

Q: `CCCCCCCCCCCCOS(=O)(=O)[O-].[Na+]` [Positive control, Sodium Dodecylsulphate] was tested. Which “Release of LDH, statistical comparison in relation to the negative control” value [1] did it give?
A: *** (*** p < 0.001 extremely significant variation)

Q: And the “Release of IL-1α, statistical comparison in relation to the negative control” value [2]?
A: *** (*** p < 0.001 extremely significant variation)

Q: And the “Average value of OD ± SD (MTT)” value ([3]; 18-hour continuous contact and incubation)?
A: 0.185 ± 0.004

Q: What about the “Average value of the % vitality (MTT)” value ([3]; 18-hour treatment, relative to negative control = 100%) of the same molecule?
A: 8.40 ± 0.17%
